Source: the NIST ThermoML archive (doi:10.1016/j.fluid.2005.07.017)

Experiment: xn = mol fraction of the nth substance listed
Conditions: Liquid, Vibrating tube method

c1ccsc1 [thiophene] + O=C=O
Conditions	mass density [kg/m3]
342.91 K, 11019 kPa, x2 = 0.3818	967.88
342.91 K, 11995 kPa, x2 = 0.3818	969.76
342.91 K, 12980 kPa, x2 = 0.3818	971.64
342.91 K, 14033 kPa, x2 = 0.3818	973.6
342.91 K, 15024 kPa, x2 = 0.3818	975.41
342.91 K, 15980 kPa, x2 = 0.3818	977.13
342.91 K, 17026 kPa, x2 = 0.3818	978.96
342.91 K, 18022 kPa, x2 = 0.3818	980.7
342.91 K, 19019 kPa, x2 = 0.3818	982.41
343.15 K, 101 kPa, x2 = 0	1002.15
352.59 K, 4979 kPa, x2 = 0.199	974.07
352.59 K, 5990 kPa, x2 = 0.199	975.64
352.59 K, 7029 kPa, x2 = 0.199	977.28
352.59 K, 8024 kPa, x2 = 0.199	978.8
352.59 K, 9035 kPa, x2 = 0.199	980.29
352.59 K, 9983 kPa, x2 = 0.199	981.7
352.59 K, 11018 kPa, x2 = 0.199	983.2
352.59 K, 12014 kPa, x2 = 0.199	984.65
352.59 K, 13125 kPa, x2 = 0.199	986.24
352.59 K, 14000 kPa, x2 = 0.199	987.44
352.59 K, 15014 kPa, x2 = 0.199	988.92
352.59 K, 15934 kPa, x2 = 0.199	990.14
352.59 K, 17055 kPa, x2 = 0.199	991.66
352.59 K, 17954 kPa, x2 = 0.199	992.83
352.59 K, 19034 kPa, x2 = 0.199	994.28
352.59 K, 20005 kPa, x2 = 0.199	995.52
352.67 K, 1064 kPa, x2 = 0	992.39
352.67 K, 2003 kPa, x2 = 0	993.54
352.67 K, 3024 kPa, x2 = 0	994.79
352.67 K, 4003 kPa, x2 = 0	995.98
352.67 K, 5048 kPa, x2 = 0	997.22
352.67 K, 6013 kPa, x2 = 0	998.36
352.67 K, 7013 kPa, x2 = 0	999.51
352.67 K, 8050 kPa, x2 = 0	1000.73
352.67 K, 9018 kPa, x2 = 0	1001.82
352.67 K, 10003 kPa, x2 = 0	1002.93
352.67 K, 11003 kPa, x2 = 0	1004.07
352.67 K, 12004 kPa, x2 = 0	1005.16
352.67 K, 12998 kPa, x2 = 0	1006.25
352.67 K, 14005 kPa, x2 = 0	1007.34
352.67 K, 15038 kPa, x2 = 0	1008.46
352.67 K, 16006 kPa, x2 = 0	1009.49
352.67 K, 17027 kPa, x2 = 0	1010.58
352.67 K, 18001 kPa, x2 = 0	1011.6
352.67 K, 19031 kPa, x2 = 0	1012.65
352.67 K, 20017 kPa, x2 = 0	1013.74
352.85 K, 7014 kPa, x2 = 0.3818	941.65
352.85 K, 8124 kPa, x2 = 0.3818	944.24
352.85 K, 9071 kPa, x2 = 0.3818	946.38
352.85 K, 10020 kPa, x2 = 0.3818	948.55
352.85 K, 11000 kPa, x2 = 0.3818	950.66
352.85 K, 12010 kPa, x2 = 0.3818	952.84
352.85 K, 13005 kPa, x2 = 0.3818	954.93
352.85 K, 14021 kPa, x2 = 0.3818	956.99
352.85 K, 15021 kPa, x2 = 0.3818	958.98
352.85 K, 16002 kPa, x2 = 0.3818	960.92
352.85 K, 17007 kPa, x2 = 0.3818	962.89
352.85 K, 18002 kPa, x2 = 0.3818	964.77
352.85 K, 19018 kPa, x2 = 0.3818	966.66
353.15 K, 101 kPa, x2 = 0	989.76
362.38 K, 5067 kPa, x2 = 0.199	959.54
362.38 K, 6020 kPa, x2 = 0.199	961.18
362.38 K, 7006 kPa, x2 = 0.199	962.87
362.38 K, 8052 kPa, x2 = 0.199	964.61
362.38 K, 9004 kPa, x2 = 0.199	966.16
362.38 K, 9993 kPa, x2 = 0.199	967.76
362.38 K, 11055 kPa, x2 = 0.199	969.42
362.38 K, 12043 kPa, x2 = 0.199	970.93
362.38 K, 13005 kPa, x2 = 0.199	972.44
362.38 K, 14008 kPa, x2 = 0.199	973.98
362.38 K, 14980 kPa, x2 = 0.199	975.41
362.38 K, 16011 kPa, x2 = 0.199	976.94
362.38 K, 17005 kPa, x2 = 0.199	978.39
362.38 K, 18009 kPa, x2 = 0.199	979.82
362.38 K, 19011 kPa, x2 = 0.199	981.22
362.38 K, 20040 kPa, x2 = 0.199	982.7
362.51 K, 1007 kPa, x2 = 0	979.8
362.51 K, 2022 kPa, x2 = 0	981.13
362.51 K, 3029 kPa, x2 = 0	982.49
362.51 K, 4004 kPa, x2 = 0	983.74
362.51 K, 5006 kPa, x2 = 0	985.01
362.51 K, 6003 kPa, x2 = 0	986.27
362.51 K, 6999 kPa, x2 = 0	987.5
362.51 K, 7993 kPa, x2 = 0	988.73
362.51 K, 9007 kPa, x2 = 0	989.99
362.51 K, 9993 kPa, x2 = 0	991.16
362.51 K, 10997 kPa, x2 = 0	992.36
362.51 K, 11993 kPa, x2 = 0	993.56
362.51 K, 12838 kPa, x2 = 0	994.53
362.51 K, 14038 kPa, x2 = 0	995.94
362.51 K, 15044 kPa, x2 = 0	997.1
362.51 K, 16029 kPa, x2 = 0	998.18
362.51 K, 17006 kPa, x2 = 0	999.27
362.51 K, 18016 kPa, x2 = 0	1000.4
362.51 K, 18987 kPa, x2 = 0	1001.47
362.73 K, 8081 kPa, x2 = 0.3818	925.8
362.73 K, 9009 kPa, x2 = 0.3818	928.21
362.73 K, 10010 kPa, x2 = 0.3818	930.72
362.73 K, 11009 kPa, x2 = 0.3818	933.15
362.73 K, 11996 kPa, x2 = 0.3818	935.49
362.73 K, 13008 kPa, x2 = 0.3818	937.87
362.73 K, 14001 kPa, x2 = 0.3818	940.11
362.73 K, 15006 kPa, x2 = 0.3818	942.32
362.73 K, 16002 kPa, x2 = 0.3818	944.47
362.73 K, 17016 kPa, x2 = 0.3818	946.62
362.73 K, 18023 kPa, x2 = 0.3818	948.72
362.73 K, 19014 kPa, x2 = 0.3818	950.73
